“And” between values parts separate entries of the source, which are not always exact repeats. Identical values can stand only once. Numbers after ± are expanded uncertainties.
Legend:
[1] = Liquid; for mass density: 101.33 kPa
[2] = refractive index (Na D-line) (dimensionless); conditions: 298.15 K; 101.33 kPa; Liquid; Standard Abbe refractometry

ClCCCl [1,2-dichloroethane]
mass density ([1]; 298.15 K): 1250.9 ± 1.7 kg/m3
vapor or sublimation pressure ([1]; 298.15 K): 10.81 ± 0.23 kPa
vapor or sublimation pressure ([1]; 308.15 K): 17.02 ± 0.31 kPa
vapor or sublimation pressure ([1]; 318.15 K): 25.77 ± 0.42 kPa
refractive index [2]: 1.4421 ± 0.0007

O=C1CCCCC1 [cyclohexanone]
mass density ([1]; 298.15 K): 943 ± 1.2 kg/m3
vapor or sublimation pressure ([1]; 298.15 K): 0.64 ± 0.06 kPa
vapor or sublimation pressure ([1]; 308.15 K): 1.15 ± 0.08 kPa
vapor or sublimation pressure ([1]; 318.15 K): 1.91 ± 0.09 kPa
refractive index [2]: 1.4482 ± 0.0007

O=C1CCCC1 [cyclopentanone]
mass density ([1]; 298.15 K): 945.3 ± 1.2 kg/m3
vapor or sublimation pressure ([1]; 298.15 K): 1.72 ± 0.09 kPa
vapor or sublimation pressure ([1]; 308.15 K): 2.8 ± 0.1 kPa
vapor or sublimation pressure ([1]; 318.15 K): 4.64 ± 0.13 kPa
refractive index [2]: 1.4347 ± 0.0007

ClC(Cl)Cl [trichloromethane]
mass density ([1]; 298.15 K): 1475.9 ± 2.1 kg/m3
vapor or sublimation pressure ([1]; 298.15 K): 26.44 ± 0.48 kPa
vapor or sublimation pressure ([1]; 308.15 K): 40.19 ± 0.65 kPa
vapor or sublimation pressure ([1]; 318.15 K): 58.69 ± 0.87 kPa and 58.68 ± 0.87 kPa
refractive index [2]: 1.4428 ± 0.0007
